Test systems include NCI-H23 lung; LOX IMVI melanoma; CAKI-1 renal; NCI/ADR-RES ovarian; T-47D breast; SN12C renal; SR leukemia; A549 NSCLC; COLO 205 colon; PC-3 prostate.
What all share (experiment): NCI-60 cell line screen, 48 h

Molecules are shown by their SMILES. “And” between values parts separate entries of the source, which are not always exact repeats. Identical values can stand only once.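 Exposure lasted 48 hours, with cells grown in 96-well plates and compounds tested at five concentrations. At the GI50, growth is halved. TGI is the concentration that stops growth completely.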

Turning to `O=C1/C(=C\c2ccc(F)cc2)CN(C(=O)c2ccccc2F)C/C1=C\c1ccc(F)cc1`, the GI50 in the assay on NCI-H23 lung was 2.09 µM; with LOX IMVI melanoma, 0.28 µM; in the assay with CAKI-1 renal, 2.65 µM; with NCI/ADR-RES ovarian it was 2.8 µM; in the assay on T-47D breast, 2.28 µM; in the assay with SN12C renal, 1.68 µM. Further, the GI50 in the assay with SR leukemia is 0.32 µM; with A549 NSCLC it was 2.59 µM; in the assay on COLO 205 colon, 1.86 µM; with PC-3 prostate, 1.62 µM. Besides, the TGI came to 4.91 µM in the assay on NCI-H23 lung; 0.957 µM with LOX IMVI melanoma; 9.16 µM with CAKI-1 renal; 16.4 µM in the assay with NCI/ADR-RES ovarian; 7.02 µM with T-47D breast; 3.37 µM in the assay on SN12C renal. For the same compound, the TGI in the assay on SR leukemia was found to be 3.03 µM; with A549 NSCLC, 8.75 µM; in the assay with COLO 205 colon, 3.54 µM; in the assay on PC-3 prostate it was 4.89 µM.
In the case of `C/C=C(\N=C=S)C(=O)OC1C(COC(C)=O)OC([C@]2(O)CC(=O)C(=N)C(C(=O)O)=C2O)C(O)C1OC1CC(OC)C(O)([C@@H](C)OC(=O)[C@@H](C)CC)C(C)O1` (some centres undefined), the TGI with NCI-H23 lung is 23.9 µM; with LOX IMVI melanoma it was 17.2 µM; in the assay on CAKI-1 renal, 35 µM; with NCI/ADR-RES ovarian, above 100 µM; in the assay with T-47D breast it was 42.1 µM; with SN12C renal, 40 µM. Also, the TGI was 23.2 µM in the assay on SR leukemia, above 80.6 µM in the assay with A549 NSCLC, 13.3 µM in the assay on COLO 205 colon and 32.7 µM with PC-3 prostate.
As for `COc1cccc2c1C(=O)c1c(O)c3c(c(O)c1C2=O)C[C@@](O)(C(=O)CO)CC3OC1CC(N)C(OC2CCCCO2)C(C)O1` (some centres undefined), the GI50 with NCI-H23 lung was 0.0218 µM; in the assay on LOX IMVI melanoma, 0.0184 µM; in the assay with CAKI-1 renal it was 0.523 µM; in the assay on SN12C renal, 0.0157 µM; in the assay on SR leukemia, below 0.001 µM; in the assay on A549 NSCLC, 0.00469 µM. Further, the GI50 in the assay on COLO 205 colon is 0.02 µM. Further, the TGI in the assay on NCI-H23 lung is 0.302 µM and 2.33 µM; in the assay with LOX IMVI melanoma it was 1 µM and 1.62 µM; in the assay on CAKI-1 renal, 5.38 µM and 2.76 µM; with NCI/ADR-RES ovarian it was 4.06 µM; in the assay with T-47D breast, 0.925 µM; with A549 NSCLC, 1.15 µM. This compound registered a TGI in the assay on PC-3 prostate of 0.363 µM.
Take `C#C[C@@]1(O)[C@@H](CO)O[C@@H](n2cc(Br)c3c(Cl)ccnc32)[C@@H]1O`: the GI50 was 1.86 µM in the assay on NCI-H23 lung; 0.289 µM with LOX IMVI melanoma; 0.602 µM with CAKI-1 renal; 0.422 µM in the assay with NCI/ADR-RES ovarian; 0.394 µM in the assay with T-47D breast; 0.59 µM in the assay with SN12C renal. Moreover, the GI50 in the assay on SR leukemia was 1.06 µM; in the assay with A549 NSCLC, 7.01 µM; in the assay with COLO 205 colon, 0.881 µM; in the assay with PC-3 prostate, 0.217 µM. Also, the TGI in the assay on NCI-H23 lung is above 100 µM; with LOX IMVI melanoma, 2.15 µM; in the assay on CAKI-1 renal it was above 100 µM; in the assay with NCI/ADR-RES ovarian it was 5.03 µM; with T-47D breast, above 19.9 µM; in the assay on SN12C renal, above 100 µM. The TGI with SR leukemia is above 100 µM; in the assay with A549 NSCLC, above 100 µM; with COLO 205 colon, above 100 µM; in the assay with PC-3 prostate it was 0.874 µM.
Turning to `Cc1ccc(C[As+](c2ccccc2)(c2ccccc2)c2ccccc2)cc1`, the GI50 was 1.02 µM with NCI-H23 lung; 1.41 µM with LOX IMVI melanoma; 8.85 µM in the assay with CAKI-1 renal; 49.1 µM in the assay with NCI/ADR-RES ovarian; 0.125 µM in the assay on T-47D breast; 1.25 µM in the assay with SN12C renal. For the same compound, the GI50 in the assay on SR leukemia was 0.797 µM; in the assay with A549 NSCLC, 0.588 µM; with COLO 205 colon, 0.412 µM; in the assay on PC-3 prostate, 0.409 µM. Besides, the TGI with NCI-H23 lung is 9.36 µM; in the assay with LOX IMVI melanoma, 6.85 µM; in the assay with CAKI-1 renal it was 43.9 µM; with NCI/ADR-RES ovarian, above 100 µM; in the assay with T-47D breast it was 10.3 µM; with SN12C renal, 12.1 µM. Further, the TGI with SR leukemia stood at 6.07 µM; in the assay with A549 NSCLC, 35.8 µM; in the assay with COLO 205 colon, 2.45 µM; in the assay on PC-3 prostate, 10.4 µM.
Regarding `Cc1cc(O)ccc1C1=NN(c2ccc(S(N)(=O)=O)cc2)C(=O)CC1`, the GI50 was 14.5 µM and 22.5 µM in the assay with NCI-H23 lung; 10.8 µM and 29.7 µM in the assay with LOX IMVI melanoma; 4.08 µM and 4.93 µM in the assay on CAKI-1 renal; 2.36 µM and 3.9 µM in the assay with NCI/ADR-RES ovarian; 3.23 µM and 13.1 µM in the assay on T-47D breast; 6.68 µM and 42.6 µM in the assay on SN12C renal. Moreover, the GI50 was 1.05 µM and 1.12 µM in the assay on SR leukemia; 14 µM and 15.3 µM with A549 NSCLC; 8.8 µM and 36.6 µM in the assay on COLO 205 colon; 23.5 µM and 52.1 µM with PC-3 prostate. Also, the TGI in the assay with NCI-H23 lung was 50 µM and > 100 µM; in the assay with LOX IMVI melanoma it was 50 µM and > 100 µM; with CAKI-1 renal it was 50 µM and 82.1 µM; with NCI/ADR-RES ovarian it was 50 µM and 30 µM; in the assay on T-47D breast, 50 µM and > 100 µM; in the assay on SN12C renal, 50 µM and > 100 µM. Further, the TGI in the assay with SR leukemia is 50 µM and 6.78 µM; in the assay on A549 NSCLC it was 50 µM and > 100 µM; with COLO 205 colon it was 50 µM and > 100 µM; in the assay with PC-3 prostate it was 50 µM and > 100 µM.
With `COc1ccc(Cn2cc(COc3cc(/C=C/C(=O)c4cc(OC)c(OC)c(OC)c4)ccc3OC)nn2)cc1`, the GI50 in the assay on NCI-H23 lung was 31.3 µM; in the assay on LOX IMVI melanoma, 3.22 µM; with CAKI-1 renal it was 5.68 µM; in the assay on NCI/ADR-RES ovarian it was 3.49 µM; with T-47D breast, 3.41 µM; in the assay on SN12C renal, 3.62 µM. The GI50 with SR leukemia is 2.7 µM; with A549 NSCLC, 3.09 µM; in the assay with COLO 205 colon, 4.36 µM; with PC-3 prostate, 3.63 µM. For the same compound, the TGI in the assay on NCI-H23 lung, in the assay with LOX IMVI melanoma, with CAKI-1 renal, in the assay on NCI/ADR-RES ovarian, in the assay with T-47D breast and in the assay with SN12C renal was above 100 µM in each case. Moreover, the TGI is above 100 µM in the assay on SR leukemia, 47.5 µM in the assay with A549 NSCLC, above 100 µM in the assay with COLO 205 colon and above 100 µM in the assay on PC-3 prostate.
On to `C[C@]12CC[C@H](O[C@@H]3O[C@H](CO[C@@H]4O[C@H](CO)[C@@H](O)[C@H](O)[C@H]4O)[C@@H](O)[C@H](O)[C@H]3O)C[C@@H]1CC[C@@H]1[C@@H]2CC[C@]2(C)[C@@H](C3=CC(=O)OC3)CC[C@]12O`, for which the TGI in the assay on NCI-H23 lung is 28.1 µM; in the assay on LOX IMVI melanoma, 65.6 µM; in the assay with CAKI-1 renal, above 58.9 µM; with NCI/ADR-RES ovarian it was 39.3 µM; with T-47D breast it was above 95.7 µM; in the assay on SN12C renal, 65.3 µM. The TGI in the assay with SR leukemia was above 100 µM; in the assay with A549 NSCLC it was 15.9 µM; with COLO 205 colon, above 76.9 µM; in the assay on PC-3 prostate it was above 100 µM.
With `COC(=O)[C@]12CC[C@@H](C)[C@H](C)[C@@H]1C1=CC[C@@H]3[C@@]4(C)C(C=O)=C[C@@](C)(CO)[C@@H]4[C@H](O)C[C@@]3(C)[C@]1(C)CC2`, the GI50 is 2.97 µM in the assay on NCI-H23 lung; 2.77 µM in the assay on LOX IMVI melanoma; 3.71 µM in the assay on CAKI-1 renal; 4.12 µM in the assay on NCI/ADR-RES ovarian; 2.11 µM in the assay on T-47D breast; 4.85 µM in the assay on SN12C renal. For the same compound, the GI50 is 1.92 µM in the assay on SR leukemia, 4.15 µM in the assay with A549 NSCLC, 2.17 µM in the assay on COLO 205 colon and 4.14 µM in the assay on PC-3 prostate. The TGI in the assay on NCI-H23 lung worked out at 12.2 µM; in the assay with LOX IMVI melanoma, 11.2 µM; in the assay on CAKI-1 renal, 16.8 µM; in the assay on NCI/ADR-RES ovarian, 34.6 µM; in the assay with T-47D breast it was 13.2 µM; in the assay on SN12C renal, 17.3 µM. For the same compound, the TGI with SR leukemia came out at 6.74 µM; in the assay on A549 NSCLC, 14.6 µM; in the assay on COLO 205 colon, 4.93 µM; in the assay on PC-3 prostate, 18.5 µM.
Consider `O=C1C=C(NCCO)c2nccc3c2c1nc1ccccc13`, for which the GI50 in the assay with NCI-H23 lung was 19.1 µM; in the assay with LOX IMVI melanoma, 15.8 µM; in the assay on CAKI-1 renal it was 23.3 µM; in the assay with NCI/ADR-RES ovarian it was 32 µM; in the assay with T-47D breast it was 46.2 µM; with SN12C renal, 18.2 µM. Besides, the GI50 with SR leukemia is 6.76 µM; in the assay on A549 NSCLC it was 16.4 µM; in the assay with COLO 205 colon it was 14.8 µM; in the assay on PC-3 prostate, 27.3 µM. For the same compound, the TGI is 67.3 µM in the assay with NCI-H23 lung; 95 µM in the assay on LOX IMVI melanoma; 82.2 µM in the assay with CAKI-1 renal; above 100 µM in the assay with NCI/ADR-RES ovarian; above 100 µM with T-47D breast; above 100 µM in the assay on SN12C renal. Further, the TGI in the assay with SR leukemia, in the assay with A549 NSCLC, in the assay on COLO 205 colon and in the assay with PC-3 prostate was above 100 µM throughout.
As for `O=S(=O)(NC1=NCCN1C(=S)SN1CCn2c1nsc2=S)c1ccc(Oc2ccccc2)cc1`, the GI50 in the assay on NCI-H23 lung was 43 µM; in the assay with LOX IMVI melanoma, 51 µM; with CAKI-1 renal, above 100 µM; with NCI/ADR-RES ovarian, 77.4 µM; with T-47D breast, 81.3 µM; with SN12C renal, 59.8 µM. Further, the GI50 with SR leukemia is 3.7 µM; with A549 NSCLC it was above 100 µM; with COLO 205 colon it was above 100 µM; in the assay with PC-3 prostate it was 56 µM. For the same compound, the TGI with NCI-H23 lung, in the assay with LOX IMVI melanoma, in the assay on CAKI-1 renal, in the assay on NCI/ADR-RES ovarian, in the assay on T-47D breast and with SN12C renal was above 100 µM in each case. Moreover, the TGI with SR leukemia is 45.8 µM; in the assay with A549 NSCLC, above 100 µM; with COLO 205 colon, above 100 µM; with PC-3 prostate, above 100 µM.
